The results in this text go back to patent US20250129092A1, “COMPOUNDS USEFUL IN MODULATION OF AHR SIGNALLING” (JAGUAHR THERAPEUTICS PTE LTD, priority 2021, published 2025).

The target of assay [1] is T1, AhR (Homo sapiens, UniProt P35869).
T1 sequence (P35869 11-848): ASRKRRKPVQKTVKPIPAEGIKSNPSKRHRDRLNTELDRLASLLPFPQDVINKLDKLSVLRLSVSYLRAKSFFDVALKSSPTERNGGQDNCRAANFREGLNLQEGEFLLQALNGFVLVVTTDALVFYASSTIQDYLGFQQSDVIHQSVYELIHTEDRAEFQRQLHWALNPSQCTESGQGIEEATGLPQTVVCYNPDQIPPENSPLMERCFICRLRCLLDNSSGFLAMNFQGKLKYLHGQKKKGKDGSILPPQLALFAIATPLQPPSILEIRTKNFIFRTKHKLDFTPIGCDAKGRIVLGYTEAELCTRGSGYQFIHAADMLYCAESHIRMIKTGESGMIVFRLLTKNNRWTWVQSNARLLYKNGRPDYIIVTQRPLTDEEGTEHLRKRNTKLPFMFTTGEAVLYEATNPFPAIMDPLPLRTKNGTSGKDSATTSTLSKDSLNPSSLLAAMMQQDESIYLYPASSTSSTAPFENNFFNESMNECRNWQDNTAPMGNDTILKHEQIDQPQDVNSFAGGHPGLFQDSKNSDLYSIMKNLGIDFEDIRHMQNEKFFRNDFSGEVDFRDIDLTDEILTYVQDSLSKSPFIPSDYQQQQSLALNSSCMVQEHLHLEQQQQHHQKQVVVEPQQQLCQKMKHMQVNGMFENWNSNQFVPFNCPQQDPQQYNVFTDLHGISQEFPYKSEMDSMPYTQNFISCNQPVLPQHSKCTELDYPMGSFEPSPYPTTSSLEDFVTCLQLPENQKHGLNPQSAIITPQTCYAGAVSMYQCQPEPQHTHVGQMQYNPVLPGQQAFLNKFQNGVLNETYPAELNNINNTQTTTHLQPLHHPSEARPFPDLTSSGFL
As to the kind of experiment: AhR antagonism in human PBMCs - inhibition of IL-22 release. It counts as cell-based. On the set-up: endogenous in cells. The conditions noted are these: human PBMCs activated with CD3/CD28 agonist mixture, 72 hrs, IL-22 ELISA; average; read-out: hPBMC Inhibition of CD3/CD28 induced IL-22 release: av. pIC50 (converted). The source says:
In Vitro Assay 3: AhR Antagonism in Human Peripheral Blood Mononuclear Cells (PBMCs)-Inhibition of Interleukin-22 (IL-22) Release.
PBMCs were isolated from human peripheral blood using Lymphoprep™ and diluted to 1×10^6 cells per ml in RPMI media containing […] foetal bovine serum, 1% penicillin-streptomycin and 1% non essential amino acids. PBMCs were subsequently activated with 1p1 per 100,000 cells of a CD3/CD28 agonist mixture (human T Cell TransAct™ (Miltenyi Biotec)) and then plated at 100,000 cells per well in a round bottom 96 well tissue culture plate. One hour after stimulation seven concentrations of each test compound or vehicle (final [DMSO] 0.2%) were added. The plates were then placed in an incubator at 37° C., ≥85% humidity, 5% […] for 72 hrs before the media was removed and stored at −20° C. until cytokine analysis. IL-22 was measured using human IL-22 DuoSet ELISA (R&D systems) according to the manufacturer's instructions.
A general note: ELISA stands for enzyme-linked immunosorbent assay.

The target in assay [2] is T1, AhR. Nature of the assay: AhR antagonism in U937 cells (Promega P450-Glo assay). The format is cell-based. Also noted: endogenous in cells; host or cells: U937 cells. The conditions noted are these: CYP1A1 activity readout (Luciferin-CEE), head names VAF347, average, read-out: U937 Antagonist pIC50-VAF347: av. pIC50 (converted). As for the experimental part:
In Vitro Assay 1: AhR Antagonism in U937 Cells (Promega P450-Glo™ Assay)
AhR antagonism was assessed in LJ937 cells (myeloid lineage cell line derived from a human histiocytic lymphoma). Ligand binds the AhR in the cytoplasm, and the AhR-ligand complex translocates to the nucleus and forms a heterodimer with AhR nuclear translocator (Arnt). This complex binds the xenobiotic response element (XRE) in the 5′ upstream region of the CYP1A1 promoter, enhancing CYP1A1 expression. CYP1A1 activity is subsequently determined by assessing the conversion of Luciferin-CEE to luciferin, which in turn reacts with luciferase to produce light. The amount of light produced is directly proportional to cytochrome P450 activity. U937 cells in Ultraculture serum free media (Lonza) were plated at 100,000 cells per well in a round bottom 96 well tissue culture plate. […] The plates were then placed in an incubator at 37° C., ≥85% humidity, 5% CO2 for 24 hrs. After aspiration of the supernatant the CYP1A1 substrate Luciferin-CEE ([Final] 83 μM) was added and incubated for 3 hrs before the reaction was stopped by adding luciferin detection reagent and luminescence was read after 20 minutes.

Bounds are passed on as bounds.

In the case of `O=c1[nH]cccc1-c1nc(NCCc2c[nH]c3ccccc23)c2c(n1)N[C@H](CO)CO2` [Example 27, (R)-3-(4-((2-(1H-indol-3-yl)ethyl)amino)-7-(hydroxymethyl)-7,8-dihydro-6H-pyrimido[5,4-b][1,4]oxazin-2-yl)pyridin-2 (1H)-one], the IC50 at AhR [1] is 2.14 nM; at AhR [2], 4.9 nM.
On to `COC[C@H]1COc2c(NCCc3c[nH]c4ccccc34)nc(-c3cncc(F)c3)nc2N1` [Example 28, (7S)-2-(5-fluoro-3-pyridyl)-N-[2-(1H-indol-3-yl)ethyl]-7-(methoxymethyl)-7,8-dihydro-6H-pyrimido[5,4-b][1,4]oxazin-4-amine], for which the IC50 at AhR [1] was 0.617 nM; on AhR [2] it was 0.513 nM.
As to `C[C@H]1CNc2nc(-c3cncc(F)c3)nc(NCCc3c[nH]c4ccccc34)c2O1` [Example 29, (6S)-2-(5-fluoro-3-pyridyl)-N-[2-(1H-indol-3-yl)ethyl]-6-methyl-7,8-dihydro-6H-pyrimido[5,4-b][1,4]oxazin-4-amine], the values for the IC50 on AhR [1] and on AhR [2] were 3.02 nM and 2.19 nM, respectively.
For the compound `C[C@@H]1CNc2nc(-c3cncc(F)c3)nc(NCCc3c[nH]c4ccccc34)c2O1` [Example 30, (6R)-2-(5-fluoro-3-pyridyl)-N-[2-(1H-indol-3-yl)ethyl]-6-methyl-7,8-dihydro-6H-pyrimido[5,4-b][1,4]oxazin-4-amine], the IC50 at AhR [1] was 3.98 nM; on AhR [2], 5.5 nM.
The like results for `Fc1cncc(-c2nc(NCCc3c[nH]c4ccccc34)c3c(n2)N[C@@H](C(F)(F)F)CO3)c1` [Example 32, (7R)-2-(5-fluoro-3-pyridyl)-N-[2-(1H-indol-3-yl)ethyl]-7-(trifluoromethyl)-7,8-dihydro-6H-pyrimido[5,4-b][1,4]oxazin-4-amine] were, in that order, 14.5 nM and 2.51 nM.
As for `Cc1ncc(-c2nc(NCCc3c[nH]c4ccccc34)c3c(n2)N(C2COC2)CCO3)s1` [Example 33, N-[2-(1H-indol-3-yl)ethyl]-2-(2-methylthiazol-5-yl)-8-(oxetan-3-yl)-6,7-dihydropyrimido[5,4-b][1,4]oxazin-4-amine], the IC50 on AhR [1] was 13.5 nM; on AhR [2], 14.1 nM.
Regarding `Cc1ncc(-c2nc3c(c(NC4CCc5[nH]c6cccnc6c5C4)n2)OCCN3)s1` (centres unmarked) [Example 34, 2-(2-methylthiazol-5-yl)-N-(6,7,8,9-tetrahydro-5H-pyrido[3,2-b]indol-8-yl)-7,8-dihydro-6H-pyrimido[5,4-b][1,4]oxazin-4-amine], the IC50 at AhR [1] was greater than 2000 nM; on AhR [2], greater than 759 nM.
For `COC[C@@H]1COc2c(N[C@@H]3CCc4[nH]c5ccccc5c4C3)nc(-c3cnc(C)s3)nc2N1CCN(C)C` [Example 35, (7R)-8-[2-(dimethylamino)ethyl]-7-(methoxymethyl)-2-(2-methylthiazol-5-yl)-N-[(3R)-2,3,4,9-tetrahydro-1H-carbazol-3-yl]-6,7-dihydropyrimido[5,4-b][1,4]oxazin-4-amine] the same measures were 977 nM and greater than 1000 nM.
With `Cc1ncc(-c2nc(N[C@@H]3CCc4[nH]c5ccccc5c4C3)c3c(n2)N(CCN(C)C)[C@H](CO)CO3)s1` [Example 36, [(7R)-8-[2-(dimethylamino)ethyl]-2-(2-methylthiazol-5-yl)-4-[[(3R)-2,3,4,9-tetrahydro-1H-carbazol-3-yl]amino]-6,7-dihydropyrimido[5,4-b][1,4]oxazin-7-yl]methanol], the IC50 at AhR [1] is 1070 nM; at AhR [2], greater than 1000 nM.
The like results for `Cc1ncc(-c2nc(N[C@@H]3CCc4[nH]c5ccccc5c4C3)c3c(n2)N(CCO)CCO3)s1` [Example 37, 2-[2-(2-methylthiazol-5-yl)-4-[[(3R)-2,3,4,9-tetrahydro-1H-carbazol-3-yl]amino]-6,7-dihydropyrimido[5,4-b][1,4]oxazin-8-yl]ethanol] were, in that order, 123 nM and 251 nM.
The like results for `CN1CCOc2c(NCCc3c[nH]c4ccccc34)nc(-c3ccc[nH]c3=O)nc21` [Example 44, 3-(4-((2-(1H-indol-3-yl)ethyl)amino)-8-methyl-7,8-dihydro-6H-pyrimido[5,4-b][1,4]oxazin-2-yl)pyridin-2 (1H)-one] were, in that order, less than 1.55 nM and 10.2 nM.
For the compound `COC[C@H]1COc2c(NCCc3c[nH]c4ccccc34)nc(-c3ccc[nH]c3=O)nc2N1` [Example 45, (S)-3-(4-((2-(1H-indol-3-yl)ethyl)amino)-7-(methoxymethyl)-7,8-dihydro-6H-pyrimido[5,4-b][1,4]oxazin-2-yl)pyridin-2(1H)-one], the figures for the IC50 on AhR [1] and at AhR [2] were less than 1.02 nM and 3.8 nM, respectively.
For `COC[C@@H]1COc2c(NCCc3c[nH]c4ccccc34)nc(-c3cncc(F)c3)nc2N1` [Example 46, (7R)-2-(5-fluoro-3-pyridyl)-N-[2-(1H-indol-3-yl)ethyl]-7-(methoxymethyl)-7,8-dihydro-6H-pyrimido[5,4-b][1,4]oxazin-4-amine] the same measures were less than 1.35 nM and 0.759 nM.
Consider `COC[C@@H]1COc2c(nc(-c3ccc[nH]c3=O)nc2OCCc2c[nH]c3ccccc23)N1` [Example 48, 3-[(7R)-4-[2-(1H-indol-3-yl)ethoxy]-7-(methoxymethyl)-7,8-dihydro-6H-pyrimido[5,4-b][1,4]oxazin-2-yl]-1H-pyridin-2-one], for which the IC50 at AhR [1] was 1.62 nM; at AhR [2], 4.37 nM.
The like results for `COC[C@@H]1COc2c(NCCc3c[nH]c4ccccc34)nc(-c3cc(F)cc(F)c3)nc2N1` [Example 49, (7R)-2-(3,5-difluorophenyl)-N-[2-(1H-indol-3-yl)ethyl]-7-(methoxymethyl)-7,8-dihydro-6H-pyrimido[5,4-b][1,4]oxazin-4-amine] were, in that order, 6.92 nM and 3.39 nM.
Take `Fc1cccc(-c2nc3c(c(NCCc4c[nH]c5ccccc45)n2)OCCN3)c1` [Example 50, 2-(3-fluorophenyl)-N-[2-(1H-indol-3-yl)ethyl]-7,8-dihydro-6H-pyrimido[5,4-b][1,4]oxazin-4-amine]: the figures for the IC50 at AhR [1] and at AhR [2] were 22.4 nM and 5.5 nM, respectively.
Turning to `COC[C@@H]1COc2c(nc(-c3cnc(C)s3)nc2N[C@@H]2CCc3[nH]c4ccccc4c3C2)N1` [Example 53, (7R)-7-(methoxymethyl)-2-(2-methylthiazol-5-yl)-N-[(3R)-2,3,4,9-tetrahydro-1H-carbazol-3-yl]-7,8-dihydro-6H-pyrimido[5,4-b][1,4]oxazin-4-amine], the values for the IC50 at AhR [1] and at AhR [2] were 759 nM and 81.3 nM, respectively.
As to `Cc1ncc(-c2nc3c(c(N[C@@H]4CCc5[nH]c6ccccc6c5C4)n2)OC[C@@H](CO)N3)s1` [Example 54, [(7R)-2-(2-methylthiazol-5-yl)-4-[[(3R)-2,3,4,9-tetrahydro-1H-carbazol-3-yl]amino]-7,8-dihydro-6H-pyrimido[5,4-b][1,4]oxazin-7-yl]methanol], the results for the IC50 at AhR [1] and on AhR [2] were 501 nM and 229 nM, respectively.
For `COC[C@@H]1COc2c(NCCc3c[nH]c4ccccc34)nc(-c3ccc(F)cc3)nc2N1` [Example 56, (7R)-2-(4-fluorophenyl)-N-[2-(1H-indol-3-yl)ethyl]-7-(methoxymethyl)-7,8-dihydro-6H-pyrimido[5,4-b][1,4]oxazin-4-amine] the same measures were 18.6 nM and 12 nM.
